# PubChem BioAssay AID1259411 (Chemical Carcinogenesis Research Information System (CCRIS), 2018)
# Calls of active or inactive are those of the source. No rule for the calls is given here.
# System: rodent carcinogenicity bioassays, tumor incidence
# Test: CCRIS carcinogenicity studies
# Summary of the method: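 NCI-built, expert-reviewed records of carcinogenicity and related test outcomes (mutagenicity, tumor promotion/inhibition) compiled from published and report sources, historical span 1985-2011, not updated.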
compound,measurement,setting,value
CC(=O)Nc1ccc2c(c1)Cc1ccccc1-2,carcinogen call,"Species: DOG, Strain/Sex: BEAGLE, Route: ORAL, Dose: 8.3-10.9 MG/KG/D (AVE DAILY INTAKE) FOR 68.5-91 MO (TOTAL DOSE: 90-198 G), Tumor Site: Type of Lesion: LIVER: CARCINOMA, URINARY BLADDER: PAPILLOMA",active; positive
same,carcinogen call,"Species: FISH, Strain/Sex: GUPPY/ MALE, FEMALE, Route: IMMERSION, Dose: 0, 1 MG/L IN WELL WATER FOR 1 6 HR EXPOSURE OR FOR 1,2,3 OR 4 12 HR EXPOSURES, MULTIPLE EXPOSURES GIVEN AT WEEKLY INTERV",inactive; negative
same,carcinogen call,"Species: FISH, Strain/Sex: GUPPY/ MALE, FEMALE, Route: IMMERSION, Dose: 0, 1 MG/L IN WELL WATER FOR 7 D CONTINUOUS EXPOSURE, SOLUTIONS RENEWED EVERY 24 HR (STUDY DURATION: 52 WK), Tumor Site: Type of Lesion: LIVER: TUMOR",active; positive
same,carcinogen call,"Species: FISH, Strain/Sex: MEDAKA/ MALE, FEMALE, Route: IMMERSION, Dose: 0, 1 MG/L IN WELL WATER FOR 1 6 HR EXPOSURE OR FOR 1,2,3 OR 4 12 HR EXPOSURES, MULTIPLE EXPOSURES GIVEN AT WEEKLY INTERV",inactive; negative
same,carcinogen call,"Species: FISH, Strain/Sex: MEDAKA/ MALE, FEMALE, Route: IMMERSION, Dose: 0, 1 MG/L IN WELL WATER FOR 7 D CONTINUOUS EXPOSURE, SOLUTIONS RENEWED EVERY 24 HR (STUDY DURATION: 52 WK)",inactive; negative
same,carcinogen call,"Species: HAMSTER, Strain/Sex: SYRIAN/ MALE, FEMALE, Route: INTRAPERITONEAL, ORAL, Dose: 5 MG/100 G 3/WK FOR 3 WK, THEN 0.06% IN DIET, Tumor Site: Type of Lesion: URINARY BLADDER, LIVER: CHOLANGIOCARCINOMA",active; positive
same,carcinogen call,"Species: HAMSTER, Strain/Sex: SYRIAN/FEMALE, Route: ORAL, Dose: 0.025% IN DIET FOR LIFE, Tumor Site: Type of Lesion: LIVER: INTRAHEPATIC BILE DUCT CARCINOMA",active; positive
same,carcinogen call,"Species: HAMSTER, Strain/Sex: SYRIAN, Route: ORAL, Dose: 5 MG FOR 22 WK THEN 15 MG FOR 4 WK, THEN 10 MG 2/WK AFTER 42 WK, Tumor Site: Type of Lesion: URINARY BLADDER: CARCINOMA",active; positive
same,carcinogen call,"Species: MOUSE, Strain/Sex: BALB/C/FEMALE, Route: ORAL, Dose: 0, 75, 100, 150 PPM IN DIET UP TO 33 MO (STUDY DURATION: 33 MO), Dose: 0, 75, 100, 150 PPM IN DIET UP TO 33 MO (STUDY DURATION: 33 MO), Tumor Site: Type of Lesion: LIVER: HEPATOCELLULAR ADENOMA OR CARCINOMA, BLADDER: TRANSITIONAL CELL CARCINOMA",active; positive
same,carcinogen call,"Species: MOUSE, Strain/Sex: CBA/ MALE, FEMALE, Route: ORAL, Dose: 3 MG/MOUSE 2/WK, Tumor Site: Type of Lesion: MAMMARY GLAND, URINARY BLADDER, LIVER, Tumor Site: Type of Lesion: MAMMARY GLAND, URINARY BLADDER, LIVER",active; positive
same,carcinogen call,"Species: MOUSE, Strain/Sex: EU-PIM-1/FEMALE, Route: GAVAGE, Dose: 0, 25, 100 MG/KG 1/D FOR 38 WK (STUDY DURATION: 38 WK), Dose: 0, 25, 100 MG/KG 1/D FOR 38 WK (STUDY DURATION: 38 WK)",inactive; negative
same,carcinogen call,"Species: MOUSE, Strain/Sex: EU-PIM-1/MALE, Route: GAVAGE, Dose: 0, 25, 100 MG/KG 1/D FOR 38 WK (STUDY DURATION: 38 WK), Dose: 0, 25, 100 MG/KG 1/D FOR 38 WK (STUDY DURATION: 38 WK), Tumor Site: Type of Lesion: LYMPHATIC SYSTEM: LYMPHOMA",active; positive
same,carcinogen call,"Species: MOUSE, Strain/Sex: R-III/ MALE, FEMALE, Route: ORAL, Dose: 3 MG/MOUSE 2/WK, Tumor Site: Type of Lesion: URINARY BLADDER, LIVER",active; positive
same,carcinogen call,"Species: MOUSE, Strain/Sex: STRAIN-A/ MALE, FEMALE, Route: ORAL, Dose: 3 MG/MOUSE 2/WK, Tumor Site: Type of Lesion: URINARY BLADDER",active; positive
same,carcinogen call,"Species: MOUSE, Strain/Sex: STRAIN-IF/ MALE, FEMALE, Route: ORAL, Dose: 3 MG/MOUSE 2/WK, Tumor Site: Type of Lesion: URINARY BLADDER, LIVER, MAMMARY GLAND, Tumor Site: Type of Lesion: URINARY BLADDER, LIVER, MAMMARY GLAND",active; positive
same,carcinogen call,"Species: RABBIT, Strain/Sex: NZW/ MALE, FEMALE, Route: ORAL, Dose: 100 MG 2/WK (TOTAL DOSE 21-52 G AS POWDER), Tumor Site: Type of Lesion: URINARY BLADDER: PAPILLOMA, ADENOCARCINOMA, URETER: PAPILLOMA, ADENOCARCINOMA",active; positive
same,carcinogen call,"Species: RABBIT, Strain/Sex: NZW/FEMALE, Route: ORAL, Dose: 100 MG IN 1 ML CORN OIL 2/WK FOR LIFE, Tumor Site: Type of Lesion: URINARY BLADDER: TRANSITIONAL CELL TUMOR, KIDNEY: TRANSITIONAL CELL TUMOR",active; positive
same,carcinogen call,"Species: RAT, Strain/Sex: AES/FEMALE, Route: ORAL, Dose: 300 MG/KG IN SEMI-PURIFIED OR STOCK DIET, Tumor Site: Type of Lesion: EAR (DUCT): CARCINOMA",active; positive
same,carcinogen call,"Species: RAT, Strain/Sex: ALBINO/ MALE, FEMALE, Route: ORAL, Dose: 0.036% IN DIET FOR 8 MO, Tumor Site: Type of Lesion: LIVER: HEPATOMA, MAMMARY GLAND, EAR (DUCT), Tumor Site: Type of Lesion: LIVER: HEPATOMA, MAMMARY GLAND, EAR (DUCT)",active; positive
same,carcinogen call,"Species: RAT, Strain/Sex: ALBINO/FEMALE, Route: ORAL, Dose: 0.125% IN DIET, Tumor Site: Type of Lesion: URINARY BLADDER: CARCINOMA",active; positive
same,carcinogen call,"Species: RAT, Strain/Sex: ALBINO/MALE, Route: ORAL, Dose: 0.018, 0.036% IN DIET FOR 90 DAYS, Tumor Site: Type of Lesion: LIVER: HEPATOMA, EAR (DUCT), INTESTINES (SMALL), Tumor Site: Type of Lesion: LIVER: HEPATOMA, EAR (DUCT), INTESTINES (SMALL)",active; positive
same,carcinogen call,"Species: RAT, Strain/Sex: BUFFALO/ MALE, FEMALE, Route: ORAL, Dose: 0.05% IN DIET FOR 23 WK (580 MG/RAT), Tumor Site: Type of Lesion: LIVER: HEPATOMA, EAR (DUCT): CARCINOMA",active; positive
same,carcinogen call,"Species: RAT, Strain/Sex: F344/MALE, Route: ORAL, Dose: 0.06% IN DIET FOR 3 WK, THEN CONTROL DIET FOR 1 WK, REPEATED 3X, Tumor Site: Type of Lesion: TESTES: MESOTHELIOMA, LIVER: HEPATOCELLULAR CARCINOMA, CHOLANGIOCARCINOMA",active; positive
same,carcinogen call,"Species: RAT, Strain/Sex: FEMALE, Route: ORAL, Dose: 0.03% IN DIET, Tumor Site: Type of Lesion: EYE",active; positive
same,carcinogen call,"Species: RAT, Strain/Sex: FEMALE, Route: ORAL, Dose: 1.62 MMOL/KG DIET FOR 8 MO, Tumor Site: Type of Lesion: MAMMARY GLAND, EAR (DUCT), INTESTINES (SMALL), Tumor Site: Type of Lesion: MAMMARY GLAND, EAR (DUCT), INTESTINES (SMALL)",active; positive
same,carcinogen call,"Species: RAT, Strain/Sex: HOLTZMAN/FEMALE, Route: ORAL, Dose: 1.62 MMOL/KG IN DIET, Tumor Site: Type of Lesion: MAMMARY GLAND, EAR (DUCT), INTESTINES (SMALL), Tumor Site: Type of Lesion: MAMMARY GLAND, EAR (DUCT), INTESTINES (SMALL)",active; positive
same,carcinogen call,"Species: RAT, Strain/Sex: HOLTZMAN/MALE, Route: ORAL, Dose: 1.62 MMOL/KG IN DIET, Tumor Site: Type of Lesion: LIVER, EAR (DUCT), INTESTINES (SMALL), Tumor Site: Type of Lesion: LIVER, EAR (DUCT), INTESTINES (SMALL)",active; positive
same,carcinogen call,"Species: RAT, Strain/Sex: LONG-EVANS/ MALE, FEMALE, Route: ORAL, Dose: IN DIET, Tumor Site: Type of Lesion: EAR (AUDITORY CANAL): SQUAMOUS CELL CARCINOMA",active; positive
same,carcinogen call,"Species: RAT, Strain/Sex: MALE, Route: ORAL, Dose: 1.62 MMOL/KG IN DIET FOR 8 MO, Tumor Site: Type of Lesion: LIVER: HEPATOMA, INTESTINES (SMALL), EAR (DUCT), Tumor Site: Type of Lesion: LIVER: HEPATOMA, INTESTINES (SMALL), EAR (DUCT)",active; positive
same,carcinogen call,"Species: RAT, Strain/Sex: PIEBALD/ MALE, FEMALE, Route: ORAL, Dose: 4 MG DAILY IN DIET FOR 25 WK, Tumor Site: Type of Lesion: LIVER: HEPATOMA, EAR (DUCT): CARCINOMA, INTESTINES: CARCINOMA, Tumor Site: Type of Lesion: LIVER: HEPATOMA, EAR (DUCT): CARCINOMA, INTESTINES: CARCINOMA",active; positive
same,carcinogen call,"Species: RAT, Strain/Sex: PIEBALD/FEMALE, Route: ORAL, Dose: 0.03% IN DIET, Tumor Site: Type of Lesion: MAMMARY GLAND: CARCINOMA",active; positive
same,carcinogen call,"Species: RAT, Strain/Sex: PIEBALD/MALE, Route: DERMAL, Dose: IN ACETONE, Tumor Site: Type of Lesion: LIVER: HEPATOMA, INTESTINES: CARCINOMA",active; positive
same,carcinogen call,"Species: RAT, Strain/Sex: SHEFFIELD/ MALE, FEMALE, Route: ORAL, Dose: 4 MG DAILY IN DIET FOR 25 WK, Tumor Site: Type of Lesion: LIVER: HEPATOMA, EAR (DUCT): CARCINOMA, INTESTINES: CARCINOMA, Tumor Site: Type of Lesion: LIVER: HEPATOMA, EAR (DUCT): CARCINOMA, INTESTINES: CARCINOMA",active; positive
same,carcinogen call,"Species: RAT, Strain/Sex: SHERMAN/ MALE, FEMALE, Route: ORAL, Dose: 0.03% IN DIET FOR LIFE, Tumor Site: Type of Lesion: LIVER: CARCINOMA",active; positive
same,carcinogen call,"Species: RAT, Strain/Sex: SPRAGUE-DAWLEY/FEMALE, Route: INTRAPERITONEAL, Dose: 1 MG/0.1 ML 3/WK FOR 4 WK (TOTAL DOSE 0.17 MMOL/RAT), Tumor Site: Type of Lesion: MAMMARY GLAND: ADENOCARCINOMA",active; positive
same,carcinogen call,"Species: RAT, Strain/Sex: SPRAGUE-DAWLEY/FEMALE, Route: ORAL, Dose: 300 MG/KG IN SEMI-PURIFIED OR STOCK DIET, Tumor Site: Type of Lesion: EAR (DUCT): CARCINOMA",active; positive
same,carcinogen call,"Species: RAT, Strain/Sex: STRAIN-CD/FEMALE, Route: ORAL, Dose: 80, 250 PPM IN DIET FOR 78 WK (LOW DOSE) OR 50 WK (HIGH DOSE), Tumor Site: Type of Lesion: LIVER: NEOPLASTIC NODULE, HEPATOCELLULAR CARCINOMA, MAMMARY GLAND: ADENOCARCINOMA",active; positive
same,carcinogen call,"Species: RAT, Strain/Sex: STRAIN-CD/MALE, Route: ORAL, Dose: 80, 250 PPM IN DIET FOR 78 WK (LOW DOSE) OR 50 WK (HIGH DOSE), Tumor Site: Type of Lesion: LIVER: HEPATOCELLULAR CARCINOMA",active; positive
same,carcinogen call,"Species: RAT, Strain/Sex: WISTAR/ MALE, FEMALE, Route: ORAL, Dose: 0.03% IN DIET FOR LIFE, Tumor Site: Type of Lesion: LIVER: CARCINOMA",active; positive
same,carcinogen call,"Species: RAT, Strain/Sex: WISTAR/ MALE, FEMALE, Route: ORAL, Dose: 0.07% IN DIET, Tumor Site: Type of Lesion: LIVER: HEPATOMA",active; positive
same,carcinogen call,"Species: RAT, Strain/Sex: WISTAR/MALE, Route: DERMAL, Dose: IN ACETONE, Tumor Site: Type of Lesion: LIVER: HEPATOMA, INTESTINES: CARCINOMA",active; positive
